According to the NIST ThermoML archive (doi:10.1021/acs.jced.5b01007):
± gives the expanded uncertainty stated by the source.

Conditions: Fluid (supercritical or subcritical phases), Frequency=8 MHz, Pulse-echo method

Compound: O=O [oxygen]
- speed of sound (299.96 K, 14860 kPa): 352.65 ± 0.38 m/s
- speed of sound (299.97 K, 9920 kPa): 340.22 ± 0.38 m/s
- speed of sound (299.97 K, 20050 kPa): 370.99 ± 1.6 m/s
- speed of sound (299.97 K, 25030 kPa): 392.82 ± 1.9 m/s
- speed of sound (299.97 K, 29960 kPa): 417.33 ± 2.1 m/s
- speed of sound (299.97 K, 34960 kPa): 443.87 ± 2.2 m/s
- speed of sound (299.97 K, 39960 kPa): 471.2 ± 2.2 m/s
- speed of sound (299.97 K, 45030 kPa): 498.92 ± 2.2 m/s
- speed of sound (299.97 K, 50010 kPa): 525.82 ± 2.2 m/s
- speed of sound (299.97 K, 55140 kPa): 552.86 ± 2.1 m/s
- speed of sound (299.97 K, 60160 kPa): 578.47 ± 2.1 m/s
- speed of sound (299.97 K, 64960 kPa): 602.28 ± 2 m/s
- speed of sound (299.97 K, 69690 kPa): 624.95 ± 2 m/s
- speed of sound (300 K, 74030 kPa): 645.07 ± 1.9 m/s
- speed of sound (349.98 K, 8030 kPa): 367.01 ± 0.39 m/s
- speed of sound (349.98 K, 29990 kPa): 433.29 ± 1.6 m/s
- speed of sound (349.98 K, 49900 kPa): 518.73 ± 1.8 m/s
- speed of sound (349.98 K, 78850 kPa): 641.85 ± 1.7 m/s
- speed of sound (349.99 K, 10070 kPa): 370.9 ± 0.39 m/s
- speed of sound (349.99 K, 14980 kPa): 382.53 ± 0.4 m/s
- speed of sound (349.99 K, 19640 kPa): 396.03 ± 0.4 m/s
- speed of sound (349.99 K, 24980 kPa): 414.2 ± 1.5 m/s
- speed of sound (349.99 K, 35080 kPa): 454.09 ± 1.7 m/s
- speed of sound (349.99 K, 45020 kPa): 497.15 ± 1.8 m/s
- speed of sound (349.99 K, 55110 kPa): 541.66 ± 1.8 m/s
- speed of sound (349.99 K, 59910 kPa): 562.59 ± 1.8 m/s
- speed of sound (349.99 K, 68690 kPa): 600.07 ± 1.7 m/s
- speed of sound (350.03 K, 40050 kPa): 475.39 ± 1.8 m/s
- speed of sound (350.03 K, 64930 kPa): 584.11 ± 1.8 m/s
- speed of sound (399.05 K, 83180 kPa): 648.15 ± 1.5 m/s
- speed of sound (399.06 K, 19900 kPa): 421.58 ± 0.42 m/s
- speed of sound (399.07 K, 74590 kPa): 617.2 ± 1.6 m/s
- speed of sound (399.07 K, 79990 kPa): 636.78 ± 1.5 m/s
- speed of sound (399.08 K, 34890 kPa): 469.6 ± 1.5 m/s
- speed of sound (399.08 K, 39970 kPa): 487.82 ± 1.5 m/s
- speed of sound (399.08 K, 44980 kPa): 506.29 ± 1.6 m/s
- speed of sound (399.08 K, 54970 kPa): 543.88 ± 1.6 m/s
- speed of sound (399.08 K, 60070 kPa): 563.14 ± 1.6 m/s
- speed of sound (399.08 K, 64900 kPa): 581.28 ± 1.6 m/s
- speed of sound (399.08 K, 70100 kPa): 600.65 ± 1.6 m/s
- speed of sound (399.09 K, 4960 kPa): 388.03 ± 0.4 m/s
- speed of sound (399.09 K, 6020 kPa): 389.77 ± 0.4 m/s
- speed of sound (399.09 K, 7950 kPa): 393.26 ± 0.4 m/s
- speed of sound (399.09 K, 25010 kPa): 436.72 ± 1.3 m/s
- speed of sound (399.09 K, 29900 kPa): 452.47 ± 1.4 m/s
- speed of sound (399.09 K, 50090 kPa): 525.43 ± 1.6 m/s
- speed of sound (399.1 K, 15010 kPa): 408.72 ± 0.41 m/s
- speed of sound (399.11 K, 9980 kPa): 397.34 ± 0.4 m/s
- speed of sound (449.79 K, 87520 kPa): 660.32 ± 1.4 m/s
- speed of sound (449.87 K, 80010 kPa): 636.12 ± 1.4 m/s
- speed of sound (449.88 K, 75270 kPa): 620.61 ± 1.4 m/s
- speed of sound (449.88 K, 85020 kPa): 652.33 ± 1.4 m/s
- speed of sound (449.89 K, 65180 kPa): 587.16 ± 1.4 m/s
- speed of sound (449.89 K, 70120 kPa): 603.58 ± 1.4 m/s
- speed of sound (449.9 K, 55090 kPa): 553.54 ± 1.4 m/s
- speed of sound (449.9 K, 60070 kPa): 570.12 ± 1.4 m/s
- speed of sound (449.93 K, 35030 kPa): 488.6 ± 1.3 m/s
- speed of sound (449.93 K, 40050 kPa): 504.35 ± 1.4 m/s
- speed of sound (449.94 K, 6010 kPa): 414.33 ± 0.41 m/s
- speed of sound (449.94 K, 9970 kPa): 422.01 ± 0.41 m/s
- speed of sound (449.94 K, 15000 kPa): 433.26 ± 0.42 m/s
- speed of sound (449.94 K, 20010 kPa): 445.6 ± 1.1 m/s
- speed of sound (449.94 K, 24940 kPa): 458.85 ± 1.2 m/s
- speed of sound (449.94 K, 30000 kPa): 473.4 ± 1.3 m/s
- speed of sound (449.94 K, 45090 kPa): 520.58 ± 1.4 m/s
- speed of sound (449.94 K, 49910 kPa): 536.52 ± 1.4 m/s
- speed of sound (449.95 K, 8010 kPa): 418.16 ± 0.41 m/s
- speed of sound (449.95 K, 88050 kPa): 662.01 ± 1.4 m/s
- speed of sound (498.83 K, 69940 kPa): 610.55 ± 1.3 m/s
- speed of sound (498.89 K, 60010 kPa): 580.54 ± 1.3 m/s
- speed of sound (498.89 K, 65000 kPa): 595.63 ± 1.3 m/s
- speed of sound (498.9 K, 95000 kPa): 684.96 ± 1.3 m/s
- speed of sound (498.91 K, 74960 kPa): 625.69 ± 1.3 m/s
- speed of sound (498.91 K, 90000 kPa): 670.28 ± 1.3 m/s
- speed of sound (498.91 K, 100060 kPa): 699.53 ± 1.3 m/s
- speed of sound (498.92 K, 79990 kPa): 640.74 ± 1.3 m/s
- speed of sound (498.93 K, 84890 kPa): 655.27 ± 1.3 m/s
- speed of sound (498.94 K, 10000 kPa): 444.64 ± 0.43 m/s
- speed of sound (498.99 K, 40010 kPa): 521.13 ± 1.2 m/s
- speed of sound (499 K, 29910 kPa): 492.81 ± 1.2 m/s
- speed of sound (499 K, 34730 kPa): 506.11 ± 1.2 m/s
- speed of sound (499 K, 44900 kPa): 535.41 ± 1.3 m/s
- speed of sound (499.01 K, 24900 kPa): 479.52 ± 1.1 m/s
- speed of sound (499.02 K, 14940 kPa): 455.31 ± 0.43 m/s
- speed of sound (499.03 K, 4920 kPa): 434.71 ± 0.42 m/s
- speed of sound (499.03 K, 5910 kPa): 436.52 ± 0.42 m/s
- speed of sound (499.03 K, 7820 kPa): 440.23 ± 0.42 m/s
- speed of sound (499.03 K, 49930 kPa): 550.29 ± 1.3 m/s
- speed of sound (499.03 K, 54810 kPa): 564.89 ± 1.3 m/s
- speed of sound (499.04 K, 20070 kPa): 467.39 ± 1.1 m/s
